According to patent US11197856B2, “Bicyclic compounds and methods for their use in treating autism” (priority 2013, dated 2021):

Experiments:
[1] = test system: rats exposed to hypoxic-ischemic injury (HI); test: Hypoxic-ischemic injury (HI), modified Levine model, tissue damage score; assay type: in vivo, Wistar rats
Excerpt: Adult rats (Wistar, 280-310 g, male) were used. The modified Levine model preparation and experimental procedures were used (Rice et al, 1981, Ann. Neurol. :9: 131-141; Guan et al J., 1993, Cereb. Blood Flow Metab.: 13(4): 609-16). These procedures in brief, consist of an HI injury induced by unilateral carotid artery ligation followed by inhalational asphyxia in the animals with an implanted lateral ventricular cannula. A guide cannula was stereotaxically placed on the top of the dura 1.3 mm to the right of the mid-line and 7.3 mm anterior to the interaural zero plane under halothane anaesthesia. The right carotid artery was double ligated two days after the cannulation. After 1 hour recovery from the anaesthesia, each of the rats were placed in an incubator where the humidity (90±5%) and temperature (31°±0.5° C.) were controlled for another hour, then exposed to hypoxia (6% oxygen) for 10 min. […]
Coronal sections 8 μm in thickness were cut from the striatum, cerebral cortex and hippocampus and were stained with thionin and acid fuchsin. The histological outcome was assessed at three levels: (1) the mid level of the striatum, (2) where the completed hippocampus first appeared and (3) the level where the ventral horn of the hippocampus just appears. The severity of tissue damage was scored in the striatum, cortex and the CA1-2, CA3, CA4 and dentate gyrus of the hippocampus. […]

[2] = test system: fmr1-knockout and wild-type animals; test: Contextual fear conditioning (freezing behavior); assay type: in vivo, mice
Excerpt: Fear conditioning to either a cure or a context represents a form of associative learning that has been well used in many species. The dependent measure used in contextual (delay) fear conditioning is a freezing response that takes place following pairing of an unconditioned stimulus (foot shock), with a conditioned stimulus (CS), a particular context and/or such a cue. If in a conditioning context one administers a foot shock that is paired with atone, there will be learning not only to the tone, but also to the context.
Contextual fear conditioning is a bask conditioning procedure. It involves taking an animal and placing it in a novel environment, providing an aversive stimulus, and then removing it. […] Freezing is a response to fear, which has been defined as “absence of movement except for respiration.” This freezing behavior may last from seconds to minutes depending on the strength of the aversive stimulus, the number of presentations, and the degree of learning achieved by the subject.
The device used in this study is depicted in FIG. 27. An unconditioned stimulus (mild shock to the feet) was applied, and the conditioned stimulus was a tone applied along with the shock to the feet. Under these conditions, the animals associate the unconditioned stimulus with both the conditioned stimulus and the context of the stimuli. Animals were tested for […].

BAX = test: PBBI in rats: BAX Western blotting; assay type: in vivo; conditions: 24 hr, 3 and 7 days after PBBI
Excerpt: The unilateral frontal PBBI model, which mimics the ballistic dynamics of a bullet or fragment wound to the head (Williams, 2003; Williams, 2006), was induced by stereotactic insertion of a custom probe through the right frontal cortex. A temporary cavity was formed by the rapid inflation/deflation (i.e. <40 msec) of an elastic balloon attached to the end of the probe. The PBBI apparatus consisted of a computer-controlled hydraulic pressure generator (Mitre Corp McLean, Va.), a PBBI probe and a stereotaxic frame equipped with a custom-designed probe holder as previously described (Lu, 2009; Williams, 2003). The injury severity was determined by the size of the balloon under control of the computerized hydraulic pressure. The balloon diameter calibrated to 0.63 cm expansion represented 10% of the total rat brain volume thus expressing a 10% PBBI. All surgeries were done under anaesthesia. Groups tested: Sham+vehicle, PBBI+vehicle, PBBI+cG-2-AllylP (30 mg/kg by oral gavage, 30 min post-injury, and again once daily until endpoint). AU procedures were approved by the Institutional Animal Care and Use Committee of WRAIR. Animals were housed in a facility accredited by the AAALAC. […]
Samples were analysed at 24 hr and 3 and 7 days post-injury for all groups (sham+vehicle, PBBI+vehicle, PBBI+cG-2-AllylP). […]

C=CC[C@]12CCCN1C(=O)CNC2=O [cG-2-AllylP, (8aS)-Allyl-hexahydropyrrolo[1,2-a]pyrazine-1,4-dione] was tested, and the tissue damage score ([1]; 2 ng icv 2 hours after HI, each brain region, vs vehicle p<0.001) was “significantly reduced the tissue damage in each brain region examined”, the “neural damage after hypoxia/ischemia” value ([1]; 2, 4, 20, 100 ng icv, all other sites and all other doses) was “lessened the neural damage effects of hypoxia/ischemia” and the “time spent in freezing behavior” value [2] was “substantial and statistically significant increase in the time spent in freezing behavior”. For the same compound, the BAX levels (BAX) was “did not significantly alter BAX”.
